# Earlier results in patent US9980959B2, “Method and composition for treating rhinitis” (Biolipox AB, priority 2004, dated 2018).
# Tests used:
# [1] = nasal spray
# [2] = mist administered to the lung with a nebulizer
smiles,measurement,setting,value
"O=C(O)COCCN1CCN(C(c2ccccc2)c2ccc(Cl)cc2)CC1 (stereo not shown) [cetirizine, [2-{4-[(4-chlorophenyl)-phenylmethyl]-1-piperazinyl}ethoxy]acetic acid]",Symptoms and nasal peak flow after an allergen challenge,[1],reduce symptoms and increase nasal peak flow
same,Protective effect in exercise-induced asthma,[2],good protective effect
same,Effect on symptoms in perennial allergic rhinitis,"nasal spray 0.625, 1.25, 2.5 mg/mL three times a day for two weeks",Some effect
same,Incidence of side effects (nasal events),nasal spray versus placebo,no difference in incidence between the placebo and the cetirizine-treated groups
